From EP2433624B1, “Use of buparvaquone for controlling mites parasitising honeybees” (Bimeda International Pharmaceuticals Limited, priority 2010, dated 2012)

How the values were obtained:
[1] = tested on: honeybee larvae; test: Toxicity of BPQ A in an aqueous solution when sprayed on honeybee larvae; format: in vivo, Apis mellifera; details: summary statement
Procedure: Example 3 - Toxicity of BPQ A in an aqueous solution when sprayed on honeybee larvae (50mL liquid at a concentration of 50mg/mL - BPQ A)
To spray eggs/larvae with different concentrations of the active ingredient/solvent and examine the effect on development of the young larvae
Eggs/larvae of similar age were attained by placing the queen bee in a frame cage for 36 hrs. Once the frame was laid up, the queen was released and the frame was replaced in the colony for 3 days. The frame cage allowed worker bees to attend the larvae, but prevented the queen from laying in the frame. On day 3/4, when the eggs were changing to larvae, the frame was removed and divided temporarily in 6 x 5cm strips at either side using grease proof paper to facilitate the assessment of product and solvent. Within each strip, three 3.5cm x 2.5cm squares (approximately 30 cells) of grease proof paper was removed and the developing larvae sprayed with BPQ A/solvent at the concentrations described above.

[2] = tested on: Varroa mites; test: Toxicity to Varroa mites submerged in 3µL liquid in eppendorf tubes; format: in vivo; details: for mean number of live mites: day 3, 10 mites per tube
Procedure: Example 5 - Toxicity of BPQ A to Varroa mites
To assess the toxicity of BPQ to the Varroa mite
Varroa mites only feed on haemolymph of larvae and adult bees and thus would not ingest BPQ in a syrup/water solution. Therefore, it was necessary to identify a volume sufficient to permeate through the cuticle, but not drown the mites. After preliminary investigation it was concluded that 3µL/10 mites/eppendorf tube gave the maximum viability and the latter was used for this trial.
A total of 3µL of BPQ A/solvent was pipetted into each eppendorf tube. Ten mites taken from purple eye drone pupae were submerged in the liquid by tapping the tube gently and a fresh pupa was placed in each tube. 20 pinholes were made in each of the tubes and all samples were placed in the incubator at 30°C. Three replicates were made for each concentration and water was used in the control group. Concentrations of BPQ A and solvent were as described above (Section 1.1). The number of damaged or dead mites was counted on a daily basis. Damaged mites were mites that would not move in a coordinated fashion when touched gently 3 times with a fine brush.

[3] = tested on: mammals; details: dosages many thousands of times higher than those in the invention; cited from earlier work

CC(C)(C)[C@H]1CC[C@H](CC2=C(O)C(=O)c3ccccc3C2=O)CC1 [BPQ, buparvaquone]
toxicity to bee larvae [1]: non-toxic
mean number of live mites ([2]; 0.00005µg/mL (g)): 8.66±1.73
mean number of live mites ([2]; 0.0005µg/mL (f)): 7.66±1.33
mean number of live mites ([2]; 0.5µg/mL): 3.33±2.4
toxicity to free living Varroa mites ([2]; summary statement): highly toxic
neurotoxic effect [3]: no neurotoxic effect whatsoever
